Laboratory results as given in publication PMC4621749 (The Journal of General Physiology, 2015).

Biological target: T1, frog TRPV3 (Xenopus tropicalis TRPV3) (Xenopus tropicalis, UniProt F6UZP3)
T1 sequence (F6UZP3 1-773): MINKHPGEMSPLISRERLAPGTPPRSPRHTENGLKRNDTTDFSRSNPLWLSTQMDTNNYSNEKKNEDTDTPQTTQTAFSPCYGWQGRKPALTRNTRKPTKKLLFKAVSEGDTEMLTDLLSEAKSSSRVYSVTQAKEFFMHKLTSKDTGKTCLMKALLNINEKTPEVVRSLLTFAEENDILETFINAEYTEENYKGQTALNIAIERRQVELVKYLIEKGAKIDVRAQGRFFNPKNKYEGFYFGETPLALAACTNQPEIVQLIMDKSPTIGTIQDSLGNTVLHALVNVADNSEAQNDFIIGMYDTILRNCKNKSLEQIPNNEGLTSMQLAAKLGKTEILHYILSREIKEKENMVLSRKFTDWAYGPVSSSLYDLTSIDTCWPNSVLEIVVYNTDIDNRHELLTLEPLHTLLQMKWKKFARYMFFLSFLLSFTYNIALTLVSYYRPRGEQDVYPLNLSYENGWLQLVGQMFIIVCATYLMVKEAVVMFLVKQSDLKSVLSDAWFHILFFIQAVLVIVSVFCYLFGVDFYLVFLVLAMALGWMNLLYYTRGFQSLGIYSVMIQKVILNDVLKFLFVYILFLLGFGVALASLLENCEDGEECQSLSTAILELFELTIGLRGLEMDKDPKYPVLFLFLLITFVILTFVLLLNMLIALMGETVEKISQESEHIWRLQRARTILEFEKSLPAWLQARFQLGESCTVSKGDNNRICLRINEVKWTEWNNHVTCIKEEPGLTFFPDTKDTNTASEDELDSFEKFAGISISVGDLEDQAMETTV
Test: whole-cell patch clamp, HEK293, Hill fit of current density
Format: cell-based

NCCOB(c1ccccc1)c1ccccc1 [2-APB]
EC50: 269 ± 28 µM
